Data on 19 compounds can be found in patent US8138188B2, “Melanocortin type 4 receptor agonist piperidinoylpyrrolidines” (Pfizer Inc., priority 2006, dated 2012).

Where only a bound is given, the exact number is not on record here.

The target in one series is T1, human MC3 receptor (Homo sapiens, UniProt P41968).
T1 construct: stably transfected with full length cDNA encoding human MC1 or MC3 receptors; expressed in transfected cells; host or cells: Chinese hamster ovary cell line (MC3; 'respectively')
Description: In vitro agonist potency (EC50) against melanocortin receptor type 3, cAMP in recombinant cell line. In kind it is cell-based. Particulars: cell line stably transfected with human MC3, 1 hour at 37° C. Here is the method:
Measurement of In Vitro Agonist Potency (EC50) of Compounds Against Melanocortin Receptors Type 1 and 3 (MC1 and MC3).
Activation of melanocortin (MC) receptors by agonists results in activation of intracellular adenylate cyclase enzymes that synthesise the second messenger signalling molecule, adenosine 3′,5′-cyclic monophosphate (cAMP). Changes in cAMP levels following treatment of recombinant MC1 and MC3 cell lines with test compound were measured and an MC1 and MC3 potency estimate (EC50) calculated as follows: […]
Human embryonic kidney (HEK) or Chinese hamster ovary cell lines stably transfected with full length cDNA encoding human MC1 or MC3 receptors, respectively, were established using standard molecular biology methods. Test compounds were dissolved in dimethyl sulfoxide (DMSO) at 4 mM. 11 point half log unit increment dilution series of test compound, typically starting at 50 uM were prepared in a buffer comprised of phosphate buffered saline (PBS), 2.5% DMSO and 0.05% pluronic F-127 surfactant. Freshly cultured cells at 80-90% confluence were harvested and re-suspended in Dulbecco's Modified Eagle's Medium (DMEM). Cells (10,000 for MC3, 20,000 for MC1) were added to the test compound dilution series in a 384 well assay plate and incubated for 1 hour at 37° C. The relative cAMP concentration in each well was then measured using a β-galactosidase enzyme fragment complementation method purchased in kit form as the Discoverx cAMP II kit from GE Healthcare/Amersham Biosciences UK. In the case of MC1,3-Isobutyl-1-methylxanthine (IBMX) at a concentration of 750 μM was included in DMEM as the cells were re-suspended for assay. […] Sigmoidal curves were fitted to plots of log10 inhibitor concentration vs percent effect using a custom made software application called SIGHTS and EC50 estimates determined by the software as the concentration of test compound giving an effect half way between the bottom and top assymptopes of the sigmoidal dose response curve. Each experiment included an EC50 determination for alpha melanocyte stimulating hormone, which was used as a standard to track assay consistency and allow fair comparison between EC50 estimates obtained in different experiments.

Series [1] in a line: In vitro metabolism rate determination, rat liver microsome (RLM) assay. In kind it is in vitro ADME. The note with it: rat liver microsomes, substrate 1 μM; read-out: RLM (intrinsic clearance). From the text:
In vitro Metabolism Rate Determination (Human Liver Microsome (HLM); Rat Liver Microsome (RLM) Assay)
Many drugs are metabolised by the cytochrome P450 mono-oxygenase system. This enzyme is found in high concentrations in the liver and is bound to the endoplasmic reticulum of the hepatocyte. The enzyme system can be obtained in semi-purified state by the preparation of the hepatic microsomal fractions. Determining a compound's in vitro half-life in such a system provides a useful indicator of metabolic stability.
Methodology For In Vitro Rate Determination Using Hepatic & Supermix Microsomes
The method outlined below is for a total incubation volume of 1.5 ml.
1. The following mixture is prepared in a test tube:
2. Defrost microsomes at room temperature and add sufficient microsomes to give a final concentration of 0.5 nmol cytochrome P450/ml of incubation e.g. for a 1.5 ml incubation, the volume of microsomes to be added is:
[formula] 3. Add sufficient MilliQ water to give a total incubation volume of 1.425 ml. 4. Remove 237.5 μl of incubation mix and place in test tube for PNA positive control. Add 2.5 μl of PNA solution, whirlimix, and put tube into a rack in the thermostatically controlled shaking water bath 5. Remove 100 μl for no substrate control and dispense in test tube. Place test tube in a rack in the thermostatically controlled shaking water bath. 6. Add substrate to the incubation. The substrate should be at an initial concentration of 1 μM. The volume of substrate required in the remaining 1.162.5 ml incubation is calculated as follows:
[formula] • N.B. The volume of organic solvent added should not exceed 0.1% of the total incubation volume. 7. Remove 100 μl of incubation mix into test tube for no cofactor control. Whirlimix and put into a rack in the thermostatically controlled shaking water bath. 8. Pre-incubate the tube containing the incubation mix, also positive control and no cofactor tubes in the thermostatically controlled shaking water bath set at 37° C. for approx 5 min. 9. Add NADP to initiate reaction (75 μl to each 1.162.5 ml incubation mix, 12.5 μl to positive control tube and 5 μl to no substrate tube) and take first time point immediately. The PNA positive control, no cofactor control and no substrate tubes are incubated for the total incubation time. 10. Remove 100 μl aliquots up to 9 different sampling points from 0 to 60 min (usually 0, 3, 5, 10, 15, 20, 30, 45 & 60 min) and terminate reaction. Longer incubation times can be used, but, after 120 min the microsomes deteriorate. The reaction may be terminated by addition of organic solvent, acid or base. At the end of the incubation process the no cofactor and no substrate controls in a similar manner i.e. terminate with the same reagent. 11. PNA Positive Control Procedure: • After the final sample has been taken, remove the positive control and add 1 ml 20% TCA to this tube. Also prepare a tube containing 250 μl of a PNP standard at 50 μM, and add 1 ml 20% TCA. Whirlimix both tubes and leave for approx 5 min to allow the protein to precipitate. • Centrifuge both tubes for approx 5 min in an instrument set at 3500 rpm. Remove 1 ml of supernatant and place into clean test tubes, discard the remainder. • Add 1 ml 10M NaOH to the supernatant, whirlimix, and leave to stand for approx min. Blank spectrophotometer with distilled water at 400 nm then measure absorbance of the PNP standard against distilled water. The microsomal 4-nitroanisole O-demethylase activity is calculated as follows: Calculation of Results
[formula] • The activity value from the incubation MUST be equal to or greater than 85% of the mean value of the batch used for the incubation to be valid. If this criteria is not met, then the incubation must be repeated. 11. Analyse samples (including no cofactor and no substrate control) by a specific assay for the substrate to determine the disappearance kinetics. Analysis Of Data […]

T1 sequence (P41968 whole entry): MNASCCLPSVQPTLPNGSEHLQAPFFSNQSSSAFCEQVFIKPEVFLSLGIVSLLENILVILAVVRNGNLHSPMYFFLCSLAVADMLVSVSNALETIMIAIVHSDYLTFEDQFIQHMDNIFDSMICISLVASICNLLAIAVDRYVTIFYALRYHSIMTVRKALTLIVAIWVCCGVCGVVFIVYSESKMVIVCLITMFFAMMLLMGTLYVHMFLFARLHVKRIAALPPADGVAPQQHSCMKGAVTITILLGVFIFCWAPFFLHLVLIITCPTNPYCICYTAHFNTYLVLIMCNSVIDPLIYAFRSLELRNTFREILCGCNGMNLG

On to `C[C@@H]1CN(C(=O)[C@@H]2CN(c3ccc(C#N)cn3)C[C@H]2c2ccc(Cl)cn2)C[C@H](C)[C@@]1(O)c1ccc(F)cc1` [Example 1, 6-[(3S,4S)-3-(5-Chloropyridin-2-yl)-4-{[(3R,4R,5S)-4-(4-fluorophenyl)-4-hydroxy-3,5-dimethylpiperidin-1-yl]carbonyl}pyrrolidin-1-yl]nicotinonitrile], for which the EC50 on human MC3 receptor amounted to 43.9 nM. Also, the microsomal CLint at 1 μM in series [1] was < 8.5 µL/min/mg.

As for `C[C@@H]1CN(C(=O)[C@@H]2CN(c3ccc(C#N)nn3)C[C@H]2c2ccc(Cl)cn2)C[C@H](C)[C@@]1(O)c1ccc(F)cc1` [Example 2, 6-[(3S,4S)-3-(5-Chloropyridin-2-yl)-4-{[(3R,4R,5S)-4-(4-fluorophenyl)-4-hydroxy-3,5-dimethylpiperidin-1-yl]carbonyl}pyrrolidin-1-yl]pyridazine-3-carbonitrile], the EC50 on human MC3 receptor was found to be 4.26 nM. Further, in series [1], the microsomal CLint at 1 μM was found to be 31 µL/min/mg.

Take `COc1ccc(N2C[C@@H](C(=O)N3C[C@@H](C)[C@](O)(c4ccc(F)cc4)[C@@H](C)C3)[C@H](c3ccc(Cl)cn3)C2)nn1` [Example 4, (3R,4R,5S)-1-{[(3S,4S)-4-(5-chloropyridin-2-yl)-1-(6-methoxypyridazin-3-yl)pyrrolidin-3-yl]carbonyl}-4-(4-fluorophenyl)-3,5-dimethylpiperidin-4-ol]: the EC50 at human MC3 receptor was 55.9 nM. In addition, the microsomal CLint at 1 μM in series [1] came to 74 µL/min/mg.

In the case of `C[C@@H]1CN(C(=O)[C@@H]2CN(c3ccc(Cl)nn3)C[C@H]2c2ccc(F)cn2)C[C@H](C)[C@@]1(O)c1ccc(Cl)cc1` [Example 5, (3R,4R,5S)-4-(4-chlorophenyl)-1-{[(3S,4S)-1-(6-chloropyridazin-3-yl)-4-(5-fluoropyridin-2-yl)pyrrolidin-3-yl]carbonyl}-3,5-dimethylpiperidin-4-ol], the EC50 on human MC3 receptor was determined as 203 nM. In series [1], the microsomal CLint at 1 μM was found to be 27 µL/min/mg.

In the case of `C[C@@H]1CN(C(=O)[C@@H]2CN(c3ccc(=O)[nH]n3)C[C@H]2c2ccc(F)cn2)C[C@H](C)[C@@]1(O)c1ccc(Cl)cc1` [Example 6, 6-[(3S,4S)-3-{[(3R,4R,5S)-4-(4-chlorophenyl)-4-hydroxy-3,5-dimethylpiperidin-1-yl]carbonyl}-4-(5-fluoropyridin-2-yl)pyrrolidin-1-yl]pyridazin-3(2H)-one], the EC50 on human MC3 receptor stood at 1460 nM. In addition, the microsomal CLint at 1 μM in series [1] was < 8.5 µL/min/mg.

`C[C@@H]1CN(C(=O)[C@@H]2CN(c3ccc(=O)n(C)n3)C[C@H]2c2ccc(F)cn2)C[C@H](C)[C@@]1(O)c1ccc(Cl)cc1` [Example 7, 6-[(3S,4S)-3-{[(3R,4R,5S)-4-(4-chlorophenyl)-4-hydroxy-3,5-dimethylpiperidin-1-yl]carbonyl}-4-(5-fluoropyridin-2-yl)pyrrolidin-1-yl]-2-methylpyridazin-3(2H)-one]: on human MC3 receptor, the EC50 stood at 1600 nM. The microsomal CLint at 1 μM in series [1] came out at 11 µL/min/mg.

For the compound `C[C@@H]1CN(C(=O)[C@@H]2CN(c3cncc(F)c3)C[C@H]2c2ccc(Cl)cn2)C[C@H](C)[C@@]1(O)c1ccccn1` [Example 8, (3R,4R,5S)-1-{[(3S,4S)-4-(5-chloropyridin-2-yl)-1-(5-fluoropyridin-3-yl)pyrrolidin-3-yl]carbonyl}-3,5-dimethyl-4-pyridin-2-ylpiperidin-4-ol], at human MC3 receptor, the EC50 turned out to be 1090 nM. The microsomal CLint at 1 μM in series [1] was > 510 µL/min/mg.

In the case of `C[C@@H]1CN(C(=O)[C@@H]2CN(c3cccnn3)C[C@H]2c2ccc(Cl)cn2)C[C@H](C)[C@@]1(O)c1ccccn1` [Example 9, (3R,4R,5S)-1-{[(3S,4S)-4-(5-chloropyridin-2-yl)-1-pyridazin-3-ylpyrrolidin-3-yl]carbonyl}-3,5-dimethyl-4-pyridin-2-ylpiperidin-4-ol], the EC50 on human MC3 receptor turned out to be 520 nM. For the same compound, the microsomal CLint at 1 μM in series [1] came out at 411 µL/min/mg.

`C[C@@H]1CN(C(=O)[C@@H]2CN(c3ccc(=O)n(C)n3)C[C@H]2c2ccc(Cl)cn2)C[C@H](C)[C@@]1(O)c1ccc(Cl)cn1` [Example 10]: on human MC3 receptor, the EC50 worked out at 493 nM. For the same compound, in series [1], the microsomal CLint at 1 μM was determined as 42 µL/min/mg.

With `COc1ccc(C2CN(c3ccc(C#N)nn3)CC2C(=O)N2CC(C)C(O)(c3ccc(F)cc3)C(C)C2)cn1` (stereo not shown) [Example 16], the EC50 on human MC3 receptor amounted to 323 nM. The microsomal CLint at 1 μM in series [1] was < 8.5 µL/min/mg.

With `C[C@@H]1CN(C(=O)[C@@H]2CN(c3ccc(=O)n(C)n3)C[C@H]2c2ccc(Cl)cn2)C[C@H](C)[C@@]1(O)C1CCCCC1` [Example 17], the EC50 at human MC3 receptor is 54.9 nM. Also, the microsomal CLint at 1 μM in series [1] is > 510 µL/min/mg.

As for `C[C@@H]1CN(C(=O)[C@@H]2CN(c3ccc(=O)n(C)n3)C[C@H]2c2ccc(Cl)cn2)C[C@H](C)[C@@]1(O)C1CC1` [Example 18], at human MC3 receptor, the EC50 was > 8520 nM. Moreover, the microsomal CLint at 1 μM in series [1] worked out at 68 µL/min/mg.

As for `CC1CN(C(=O)C2CN(c3ccc(=O)n(C)n3)CC2c2ccc(Cl)cn2)CC(C)C1(O)c1ccc(F)c(F)c1` (stereo not shown) [Example 19], the EC50 at human MC3 receptor came out at 425 nM. In addition, the microsomal CLint at 1 μM in series [1] was found to be 21 µL/min/mg.

As to `COc1ccc(C2(O)C(C)CN(C(=O)C3CN(c4ccc(=O)n(C)n4)CC3c3ccc(Cl)cn3)CC2C)cc1` (stereo not shown) [Example 20], the EC50 at human MC3 receptor was found to be 1120 nM. For the same compound, the microsomal CLint at 1 μM in series [1] was 51.5 µL/min/mg.

On to `CC1CN(C(=O)C2CN(c3ccc(=O)n(C)n3)CC2c2ccc(Cl)cn2)CC(C)C1(O)c1ccccc1` (stereo not shown) [Example 21], for which the EC50 at human MC3 receptor stood at 283 nM. For the same compound, the microsomal CLint at 1 μM in series [1] amounted to 58.5 µL/min/mg.

As to `C[C@@H]1CN(C(=O)[C@@H]2CN(c3ccc(=O)n(C)n3)C[C@H]2c2ccc(Cl)cn2)C[C@H](C)[C@@]1(O)c1ccccn1` [Example 22], on human MC3 receptor, the EC50 was determined as 1050 nM. Also, the microsomal CLint at 1 μM in series [1] turned out to be 96 µL/min/mg.

On to `CC1CN(C(=O)C2CN(c3ccc(=O)n(C)n3)CC2c2ccc(Cl)cn2)CC(C)C1(O)c1ccc(Cl)cc1` (stereo not shown) [Example 23], for which the EC50 on human MC3 receptor came to 185 nM. Further, in series [1], the microsomal CLint at 1 μM is < 8.5 µL/min/mg.

With `CC1CN(C(=O)C2CN(c3cncc(F)c3)CC2c2ccc(Cl)cn2)CC(C)C1(O)C1CC1` (stereo not shown) [Example 24], the EC50 on human MC3 receptor came to 2510 nM. Moreover, the microsomal CLint at 1 μM in series [1] is > 510 µL/min/mg.

With `COc1ccc([C@@H]2CN(c3ccc(C#N)nn3)C[C@H]2C(=O)N2C[C@@H](C)[C@](O)(c3ccc(F)cc3)[C@@H](C)C2)nc1` [Example 43], the EC50 on human MC3 receptor stood at 1590 nM.

By EC50 is commonly meant the concentration needed to bring the measured effect to its halfway point.
